Source: the supplement of paper PMC10307832

Experiments:
Assay in all cases: relative viability (nuclei count vs DMSO), 5 days (fraction); higher = more cells survive
[1] = compound: CC1=CC=C(C=C1)C(=O)CN2C3=C(CCCC3)SC2=N [Pifithrin_alpha]
Method in brief: (§1)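 Viability is treated-well nuclei as a fraction of vehicle-well nuclei, reported as the median across plates. Before counting, lung cancer cell lines were kept overnight at 37 °C in 1536-well plates, pinned with five √10-spaced library-drug doses on vehicle-anchored plates, and left 5 days without medium change, then fixed, permeabilised and Hoechst-stained in one step, imaged at 4× and counted by MetaXpress. A plate passed only if control CV was below 25% and at least one doubling occurred.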

[2] = compound: CNC(=O)c1ccccc1Sc1ccc2c(/C=C/c3ccccn3)n[nH]c2c1 [Axitinib]
Method in brief: as §1

[3] = compound: Nc1nc(Nc2ccc3c(c2)CC[C@@H](N2CCCC2)CC3)nn1-c1cc2c(nn1)-c1ccccc1CCC2 [Bemcentinib]
Method in brief: as §1

[4] = compound: CNC(=O)c1ccccc1Sc1ccc2c(/C=C/c3ccccn3)n[nH]c2c1 [Axitinib] + Cc1nc(Nc2ncc(C(=O)Nc3c(C)cccc3Cl)s2)cc(N2CCN(CCO)CC2)n1 [Dasatinib] (partner 0.075 µM)
Method in brief: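 Lung cancer cell lines were pin-tool dosed in 1536-well plates on the day after seeding, with either a lone drug or a fixed anchor-drug dose plus five library-drug doses (not always all listed) in √10 steps. Nuclei were counted on 4× images after 5 days. Relative viability is the ratio of treated-well to vehicle-well nuclei counts, with each value a median of duplicate plates.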

Row | Cell Line | relative viability ([1]; 1 µM) | relative viability ([1]; 3.162 µM) | relative viability ([1]; 10 µM) | relative viability ([1]; 31.62 µM) | relative viability ([1]; 100 µM) | relative viability ([2]; 0.005 µM) | relative viability ([2]; 0.01581 µM) | relative viability ([2]; 0.05 µM) | relative viability ([2]; 0.1581 µM) | relative viability ([2]; 0.5 µM) | relative viability ([3]; 0.04 µM) | relative viability ([3]; 0.1265 µM) | relative viability ([3]; 0.4 µM) | relative viability ([3]; 1.265 µM) | relative viability ([3]; 4 µM) | relative viability ([4]; first compound 0.005 µM) | relative viability ([4]; first compound 0.01581 µM) | relative viability ([4]; first compound 0.05 µM) | relative viability ([4]; first compound 0.1581 µM) | relative viability ([4]; first compound 0.5 µM)
1 | NCI-H322M | 0.906 | 0.891 | 1.01 | 0.851 | 0.869 | 1.03 | 0.847 | 0.992 | 0.813 | 1.03 | 0.873 | 0.966 | 0.982 | 0.953 | 0.998 | 0.253 | 0.231 | 0.239 | 0.259 | 0.246
2 | NCI-H358 | 0.825 | 0.94 | 0.924 | 0.733 | 0.945 | 0.947 | 0.957 | 1.05 | 0.87 | 1.14 | 0.915 | 0.941 | 0.997 | 1.01 | 1.07 | 0.116 | 0.153 | 0.155 | 0.142 | 0.146
3 | NCI-H441 | 1.08 | 1.21 | 1.03 | 0.721 | 1.23 | 1.07 | 1.07 | 1.11 | 1.22 | 1.1 | 1.01 | 1.23 | 1.04 | 0.915 | 1.26 | 0.592 | 0.722 | 0.595 | 0.575 | 0.604
4 | NCI-H460 | 1.06 | 0.949 | 0.872 | 0.592 | 0.837 | 0.976 | 0.981 | 1.05 | 1.01 | 1.1 | 0.973 | 1.1 | 1.06 | 1.07 | 1.01 | 0.429 | 0.515 | 0.607 | 0.49 | 0.441
5 | NCI-H520 | 1.05 | 0.916 | 0.96 | 0.763 | 1.1 | 0.974 | 0.737 | 1.07 | 0.765 | 0.992 | 0.868 | 1.08 | 0.992 | 1.02 | 1.08 | 0.197 | 0.159 | 0.194 |  | 0.192
6 | NCI-H522 | 0.79 | 1.12 | 0.947 | 0.85 | 0.972 | 0.914 | 0.969 | 0.996 | 0.882 | 0.693 | 0.927 | 0.96 | 1.06 | 0.9 | 0.879 | 1.51 | 0.842 | 0.883 | 0.898 | 0.728
7 | NCI-H596 | 1.12 | 0.886 | 0.958 | 0.973 | 0.996 | 1.04 | 0.956 | 1.03 | 1.06 | 0.947 | 0.883 | 1.03 | 0.924 | 0.908 | 1.07 | 0.519 | 0.477 | 0.653 | 0.569 | 0.507
8 | NCI-H647 | 0.949 | 0.916 | 0.889 | 0.722 | 0.849 | 1.14 | 0.97 | 1.03 | 0.968 | 1.15 | 1.06 | 1.09 | 0.989 | 0.971 | 1.03 | 0.206 | 0.182 | 0.194 | 0.18 | 0.126
9 | NCI-H661 | 0.948 | 1.01 | 0.988 | 1.02 | 0.873 | 1.01 | 1.02 | 0.987 | 0.96 | 1.02 | 0.965 | 1.07 | 0.994 | 1.01 | 0.964 | 1.01 | 0.737 | 0.843 | 0.83 | 0.927
10 | NCI-H727 | 0.829 | 0.841 | 0.883 | 0.587 | 0.837 | 1.01 | 0.881 | 0.991 | 0.86 | 0.972 | 0.869 | 1.08 | 1.19 | 1.01 | 1.2 | 0.403 | 0.371 | 0.436 | 0.465 | 0.347
11 | NCI-H838 | 0.856 | 0.807 | 0.854 | 0.735 | 0.643 | 0.992 | 0.944 | 1.01 | 0.933 | 1.03 | 0.946 | 1.08 | 1 | 1.02 | 1.03 | 0.288 | 0.352 | 0.342 | 0.282 | 0.262
12 | NCI-H1355 | 0.849 | 0.808 | 0.645 | 0.565 | 0.713 | 0.945 | 1.01 | 1.05 | 0.968 | 0.901 | 0.992 | 1.08 | 1.09 | 0.974 | 1.06 | 0.723 | 0.766 | 0.779 | 0.757 | 0.642
13 | NCI-H1395 |  | 0.902 | 0.915 | 0.693 | 0.85 | 0.992 | 0.719 | 0.985 | 0.886 | 0.878 | 0.893 | 1.02 | 0.952 | 0.892 | 0.838 | 0.403 | 0.425 | 0.39 | 0.404 | 0.397
